Eight compounds from PubChem BioAssay (NCI) can be followed below.

Test in all cases: inhibition of tumour cell growth, NCI panel, 48 h
Experiment [1] has as its system 786-0 renal.
The test system of experiment [2] is LOX IMVI melanoma.
In experiment [3] the test system is HS 578T breast.
The subject of experiment [4] is NCI-H226 lung.
For experiment [5], the system named is RXF 393 renal.
In experiment [6] the test system is IGROV1 ovarian.
Experiment [7] relates to SW-620 colon.
The test system of experiment [8] is RPMI-8226 leukemia.
For experiment [9], the system named is HCT-15 colon.
Experiment [10] concerns UO-31 renal.

Several values for one entry are separate records, joined by “and”; a condition that tells them apart may be missing. Identical values can stand only once.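 In this assay, cells in 96-well plates receive the compound at five concentrations for 48 hours. Endpoints are linearly interpolated between the surrounding concentrations. GI50 marks 50% less growth. Definition used: TGI = concentration required for complete inhibition of growth.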 Where only a bound is given, the exact number is not on record here.

As to `COc1cc(OC)c(/C=C/S(=O)(=O)Cc2ccc(OC)c(NCC(=O)O)c2)c(OC)c1`, the GI50 in [1] is 0.177 µM and 0.144 µM; in [2] it was 0.15 µM and 0.134 µM; in experiment [3] it was 0.103 µM and 0.0605 µM; in experiment [4], > 2.44 µM and 0.39 µM; in [5] it was 0.0726 µM and 0.0467 µM; in [6], 0.152 µM and 0.244 µM. Further, the GI50 in [7] is 0.13 µM and 0.108 µM; in experiment [8], 0.16 µM and 0.331 µM; in experiment [9] it was 0.127 µM and 0.241 µM. For the same compound, the TGI in [1], in experiment [2], in [3], in experiment [4], in experiment [5] and in experiment [6] was more than 100 µM throughout. Moreover, the TGI in experiment [7], in experiment [8], in [9] and in experiment [10] was more than 100 µM throughout.

On to `C[C@H](NC(=O)CCC(F)(F)F)C(=O)N[C@@H]1C(=O)N(CCO)c2ncccc2-c2ccccc21`, for which the GI50 in [1], in experiment [2], in experiment [3], in experiment [4], in [5] and in experiment [6] was more than 100 µM in each case. The GI50 in experiment [7], in [8], in experiment [9] and in [10] was more than 100 µM throughout. Further, the TGI in experiment [1], in experiment [2], in [3], in experiment [4], in [5] and in experiment [6] was more than 100 µM throughout. The TGI in [7], in experiment [8], in [9] and in experiment [10] was more than 100 µM in each case.

Regarding `CC(C)C[C@H](NC(=O)[C@@H](O)[C@H](N)Cc1ccccc1)C(=O)O`, the TGI in experiment [1], in experiment [2], in experiment [3], in experiment [4], in [5] and in experiment [6] was more than 100 µM in each case. In addition, the TGI in experiment [7], in experiment [8], in [9] and in experiment [10] was more than 100 µM throughout. In [10], the GI50 is more than 100 µM.

As to `Nc1ccc2c(c1)CN1C(=O)c3ccccc3C1=N2`, the GI50 in [1] was 36.8 µM; in experiment [4], 36.8 µM; in [6], 51 µM; in experiment [8], 34.1 µM; in experiment [9], 42.4 µM; in experiment [10], 44 µM. The TGI was more than 125 µM in experiment [1]; more than 125 µM in [2]; more than 76 µM in experiment [3]; more than 117 µM in experiment [4]; 102 µM in experiment [5]; 123 µM in [6]. Besides, the TGI in [7], in [8], in [9] and in [10] was more than 125 µM throughout.

For the compound `CCN(CC)CCOc1ccc(C2=C(c3ccccc3)CCc3cc(OC)ccc32)cc1`, the GI50 in experiment [1] is 1.51 µM; in experiment [2], 1.75 µM; in experiment [3] it was 3.72 µM; in experiment [4], 3.07 µM; in experiment [5], 10.2 µM; in [6], 1.8 µM. In addition, the GI50 is 2.78 µM in experiment [7], 2.62 µM in experiment [8], 1.16 µM in experiment [9] and 1.86 µM in experiment [10]. Also, the TGI was 2.88 µM in experiment [1]; 3.64 µM in experiment [2]; 10.9 µM in experiment [3]; 12.6 µM in experiment [4]; 35.9 µM in experiment [5]; 4.39 µM in experiment [6]. In addition, the TGI in experiment [7] amounted to 8.09 µM; in experiment [8] it was 11.3 µM; in experiment [9] it was 4.06 µM; in experiment [10], 4.13 µM.

With `Cc1ccc(OCCCCCCNCCO)c(C)c1`, the GI50 was 14 µM in experiment [1]; 15 µM in experiment [2]; 14.3 µM in [3]; 15.1 µM in experiment [4]; 6.53 µM in experiment [5]; 16.2 µM in experiment [6]. The GI50 in experiment [7] is 16.3 µM; in [8], 15.5 µM; in experiment [9], 15.8 µM; in experiment [10], 12.1 µM. The TGI in [1] stood at 28.8 µM; in experiment [2], 29.7 µM; in experiment [3] it was 35.5 µM; in experiment [4], 32.9 µM; in experiment [5], 20.8 µM; in [6], 35.3 µM. Besides, the TGI in [7] is 33 µM; in [8], 37.9 µM; in experiment [9], 33.8 µM; in experiment [10], 26.4 µM.

As for `COc1cc(OC)cc(N2CCN(C(=O)Nc3nc4cc(F)ccc4nc3OC)CC2)c1`, the GI50 in experiment [1] is 0.0487 µM and 0.046 µM and 0.0362 µM; in experiment [2], 0.0506 µM and 0.0658 µM and 0.0352 µM; in [3] it was < 0.01 µM and 0.027 µM and 0.0388 µM; in experiment [4], 0.197 µM and 0.0515 µM and 0.136 µM; in experiment [5] it was < 0.01 µM and 0.016 µM; in [6], 0.0441 µM and 0.0988 µM and 0.062 µM. Moreover, the GI50 is 0.0283 µM and 0.0372 µM and 0.0395 µM in experiment [7]; < 0.0182 µM and 0.0386 µM and 0.0416 µM in experiment [8]; 0.0318 µM and 0.0346 µM and 0.034 µM in experiment [9]; 0.0681 µM and 0.0692 µM and 0.0336 µM in experiment [10]. The TGI was 31 µM and 22.1 µM in experiment [1]; 17.6 µM and 13.6 µM in experiment [2]; 33.2 µM and > 100 µM in [3]; 40.7 µM and 66.1 µM in [5]; 32.3 µM and 39.5 µM in [6]; more than 100 µM in experiment [7]. Also, the TGI in experiment [8] is 13.8 µM and 20 µM; in experiment [9] it was more than 100 µM; in experiment [10] it was 38.9 µM and 43.3 µM.

As to `CC(=O)N[C@@H]1CCC[C@H](C(=O)Nc2cc(-c3cnn4c3CC(C)(C)C4)c(Cl)cn2)C1`, the GI50 in [1], in experiment [2], in experiment [3], in [4], in experiment [5] and in [6] was less than 0.01 µM each time. In addition, the GI50 was less than 0.01 µM in experiment [7], 0.0158 µM in [8], 0.0225 µM in [9] and 0.0241 µM in experiment [10]. In addition, the TGI in experiment [1] is 29.6 µM; in experiment [2], more than 100 µM; in experiment [3], 20.1 µM; in experiment [4], 38.7 µM; in [5], less than 0.01 µM; in [6] it was more than 100 µM. Moreover, the TGI was more than 100 µM in experiment [7], 0.0703 µM in experiment [8] and more than 100 µM in experiment [9].
